In patent EP4389156A1, “RA[…] LIGAND COMPOUNDS AND PRECURSORS THEREOF” (Technische Universität München, priority 2022, dated 2024):
“And” between values parts separate entries of the source, which are not always exact repeats. Equal entries are not always repeated.

Tests used:
PSMA = target: T1, PSMA (Homo sapiens, UniProt Q04609); experiment: Competitive binding study, inverse IC50 (99mTc-radioligand versus increasing IBA-KuE); conditions: inverse IC50: IBA-KuE competes against 99mTc-radioligand (0.2 nM/well); higher values = higher affinity; 1 h, 4°C, n = 3, mean ± SD; read-out: IC50, inv.
T1 construct: endogenous in cells; printed for the internalization assay of the same paragraph
Procedure: (§1) Competitive binding studies were carried out in analogy to a previously reported procedure. As a modification the non-radiolabeled standard competitor (((S)-1-carboxy-5-(4-(iodo)benzamido)pentyl)carbamoyl)-L-glutamic acid (IBA-KuE) was applied in increasing concentrations (10^-5 - 10^-11 M/well, n = 3 each) whereas the novel PSMA-binding compounds of interest were applied as ^99mTc-labeled radioligands (0.2 nM/well). In this inversed experimental approach, higher values correspond to higher affinities and are referred to as inverse IC50. Poly-L-lysine coated 24-well plates were used (n = 3). Data are given as mean ± SD. To determine the cellular uptake of the ^99mTc-labeled PSMA ligands into LNCaP cells by means of PSMA-mediated internalization at 1 h, a previously reported protocol was applied with assay concentrations of 1.0 nM and 0.2 nM for ^99mTc-labeled PSMA ligands and the reference compound [^125I]IBA-KuE, respectively. Data are corrected for non-specific binding and normalized to the specific internalization of the reference. Results are given as mean ± SD.

[1] = tested on: LNCaP tumor-bearing CB17-SCID mice; experiment: Biodistribution study in LNCaP tumor-bearing mice; format: in vivo; conditions: 6 h p.i.; for uptake in % iD/g adrenals / uptake in % iD/g blood / uptake in % iD/g bone / uptake in % iD/g heart / uptake in % iD/g intestine / uptake in % iD/g kidney / uptake in % iD/g liver / uptake in % iD/g lung / uptake in % iD/g muscle / uptake in % iD/g pancreas / uptake in % iD/g parotid gland / uptake in % iD/g spleen / uptake in % iD/g stomach / uptake in % iD/g submandibular gland / uptake in % iD/g tumor: male LNCaP tumor-bearing CB17-SCID mice, mean; for uptake in % iD/g adrenals / uptake in % iD/g blood / uptake in % iD/g bone / uptake in % iD/g heart / uptake in % iD/g intestine / uptake in % iD/g kidney / uptake in % iD/g liver / uptake in % iD/g lung / uptake in % iD/g muscle / uptake in % iD/g pancreas / uptake in % iD/g parotid gland / uptake in % iD/g spleen / uptake in % iD/g stomach / uptake in % iD/g submandibular gland / uptake in % iD/g tumor / tumor-to-background ratio adrenals / tumor-to-background ratio blood / tumor-to-background ratio bone / tumor-to-background ratio heart / tumor-to-background ratio intestine / tumor-to-background ratio kidney / tumor-to-background ratio liver / tumor-to-background ratio lung / tumor-to-background ratio muscle / tumor-to-background ratio pancreas / tumor-to-background ratio parotid gland / tumor-to-background ratio spleen / tumor-to-background ratio stomach / tumor-to-background ratio submandibular gland: n = 4-5; for tumor-to-background ratio adrenals / tumor-to-background ratio blood / tumor-to-background ratio bone / tumor-to-background ratio heart / tumor-to-background ratio intestine / tumor-to-background ratio kidney / tumor-to-background ratio liver / tumor-to-background ratio lung / tumor-to-background ratio muscle / tumor-to-background ratio pancreas / tumor-to-background ratio parotid gland / tumor-to-background ratio spleen / tumor-to-background ratio stomach / tumor-to-background ratio submandibular gland: mean of ratios of individual animals; for Blood activity levels increased, as compared to [^99mTc]Tc-N4-PSMA-12: relative to [^99mTc]Tc-N4-PSMA-12
Procedure: All animal experiments were conducted in accordance with general animal welfare regulations in Germany (German animal protection act, in the edition of the announcement, dated May 18th, 2006, as amended by Article 280 of June 19th 2020, approval no. ROB-55.2-1-2532.Vet_02-18-109 by the General Administration of Upper Bavaria) and the institutional guidelines for the care and use of animals. Male CB17-SCID mice were purchased from Charles River (Sulzfeld, Germany) and arrived at the in-house animal facility to acclimate at least 1 week before the start of the experiment. Tumor xenografts were established by subcutaneous inoculation of LNCaP cells (approx. 2 × 10^7 cells in 200 µL of a 1:1 mixture of Cultrex BME (R&D Systems, Minneapolis, United States) and DMEM/Ham's F-12) onto the right shoulder of 6-8 weeks old male CB17-SCID mice. The animals were used for experiments when tumors had grown to a size of 5-10 mm in diameter. Criteria for the exclusion of animals from the experiment were weight loss higher than 20%, tumor size above 1.5 cm^3, ulceration of the tumor, respiratory distress or change of behavior. […] Neither randomisation nor blinding was applied in the allocation of the experiments. Quarterly health monitoring was performed according to the FELASA recommendations.
Biodistribution Studies. The ^99mTc-labeled radioligands (2.7 ± 0.7 MBq, 82 ± 20 pmol) were injected into a lateral tail vein of LNCaP-tumor bearing mice (n = 4-5) under isoflurane anesthesia. Animals were sacrificed at 6 h post injection (p.i.) by carbon dioxide inhalation and blood withdrawal via cardiac puncture. Blood and tissues of interest were collected, weighed and the activity measured in a γ-counter. Radioligand uptake is given in percent of the injected dose per gram of tissue (% ID/g) and results are presented as mean ± SD.
In line with the above, the biodistribution study of [^99mTc]Tc-N4-PSMA-21 was carried out with n = 5 animals ("data set I"). […] Kidney uptake of mouse #3 (36.17 %ID/g) exceeded the value obtained from the other four animals (4.58 ± 1.44 %ID/g, mean ± SD) 7.9-fold or by more than 20 standard deviations. In addition, tumor uptake of mouse #3 (21.92 %ID/g) exceeded the value obtained from the other four animals (11.02 ± 2.22 %ID/g, mean ± SD) 2.0-fold or by more than 4 standard deviations Due to the uncertainty whether these huge deviations arise from an experimental error or might be related to strongly deviating metabolic processes e.g. abnormal kidney function in mouse #3, the study primarily presents and discusses the data set based on the other four animals (n = 4, "data set II"). A thorough evaluation and comparison was, however, also carried out including mouse #3.

[2] = Lipophilicity (logD7.4), shake-flask method; format: physicochemical; conditions: n-octanol/PBS (pH 7.4), n = 8, mean ± SD
Procedure: The lipophilicity of ^99mTc-labeled PSMA ligands, expressed as distribution coefficient (logD7.4), was determined using the shake-flask method. A solution of approximately 1 MBq of radioligand in 1 mL of a 1:1 mixture of PBS (pH = 7.4) and n-octanol (n = 8) was vortexed vigorously for 3 min. After centrifugation at 9000 rpm for 5 min aliquots of both phases (200 µL n-octanol, 50 µL PBS) were collected and the activity was quantified in a γ-counter. logD7.4 values were calculated as decadic logarithm of the activity concentration ratio between the n-octanol phase and the aqueous phase. Data are given as mean ± standard deviation (SD). Binding to human plasma was determined by incubation of radioligands in human plasma (2 nM concentration, 37 °C for 30 min) and subsequent ultrafiltration (250 µL aliquots, 3200 rpm, 40 min) in Centrifree® ultrafiltration devices (Merck Millipore, Cork, Ireland). The fraction bound to human plasma proteins was calculated as the ratio of unfiltered activity and the total activity in the ultrafiltration device. Measurements were performed in three independent experiments, each with two replicates (n = 6, data are given as mean ± SD). All values were corrected for non-specific binding (control experiments in PBS).

LNCaP cells = experiment: PSMA-mediated internalization into LNCaP cells; format: cell-based; conditions: 1 h, 37°C, n = 3, as percentage of reference [125I]IBA-KuE, mean ± SD
Procedure: as §1

[3] = target: T2, human serum albumin (HSA) (Homo sapiens, UniProt P02768); experiment: HSA binding by high performance affinity chromatography (HPAC); format: in vitro ADME; conditions: uncomplexed compounds, n = 1
T2 construct: purchased Daicel, Tokyo, Japan H13H-2433
Procedure: HSA binding of the uncomplexed PSMA ligands was determined according to a previously published procedure via HPLC (Valko, K.; Nunhuck, S.; Bevan, C.; Abraham, M. H.; Reynolds, D. P., Fast gradient HPLC method to determine compounds binding to human serum albumin. Relationships with octanol/water and immobilized artificial membrane lipophilicity. J Pharm Sci. 2003, 92, 2236-2248). A Chiralpak HSA column (50 × 3 mm, 5 µm, H13H-2433, Daicel, Tokyo, Japan) was used at a constant flow rate of 0.5 mL/min at rt. Mobile phase A was a freshly prepared 50 mM aqueous solution of NH4OAc (pH 6.9) and mobile phase B was isopropanol (HPLC grade, VWR). The applied gradient for all experiments was 100% A (0 to 3 min), followed by 80% A (3 to 40 min). Prior to the experiment, the column was calibrated using nine reference substances with a HSA binding, known from literature, in the range of 13 to 99% (Valko, K.; Nunhuck, S.; Bevan, C.; Abraham, M. H.; Reynolds, D. P., J Pharm Sci. 2003, 92, 2236-2248; Yamazaki, K.; Kanaoka, M., Computational prediction of the plasma protein-binding percent of diverse pharmaceutical compounds. J Pharm Sci. 2004, 93, 1480-1494). All substances, including the examined PSMA ligands, were dissolved in a 1:1 mixture (v/v) of isopropanol and a 50 mM aqueous solution of NH4OAc (pH 6.9) with a final concentration of 0.5 mg/mL. Non-linear regression was established with the OriginPro 2016G software (Northampton, United States).

[4] = single outlier animal (mouse #3), excluded from data set II

T1 sequence (Q04609 whole entry): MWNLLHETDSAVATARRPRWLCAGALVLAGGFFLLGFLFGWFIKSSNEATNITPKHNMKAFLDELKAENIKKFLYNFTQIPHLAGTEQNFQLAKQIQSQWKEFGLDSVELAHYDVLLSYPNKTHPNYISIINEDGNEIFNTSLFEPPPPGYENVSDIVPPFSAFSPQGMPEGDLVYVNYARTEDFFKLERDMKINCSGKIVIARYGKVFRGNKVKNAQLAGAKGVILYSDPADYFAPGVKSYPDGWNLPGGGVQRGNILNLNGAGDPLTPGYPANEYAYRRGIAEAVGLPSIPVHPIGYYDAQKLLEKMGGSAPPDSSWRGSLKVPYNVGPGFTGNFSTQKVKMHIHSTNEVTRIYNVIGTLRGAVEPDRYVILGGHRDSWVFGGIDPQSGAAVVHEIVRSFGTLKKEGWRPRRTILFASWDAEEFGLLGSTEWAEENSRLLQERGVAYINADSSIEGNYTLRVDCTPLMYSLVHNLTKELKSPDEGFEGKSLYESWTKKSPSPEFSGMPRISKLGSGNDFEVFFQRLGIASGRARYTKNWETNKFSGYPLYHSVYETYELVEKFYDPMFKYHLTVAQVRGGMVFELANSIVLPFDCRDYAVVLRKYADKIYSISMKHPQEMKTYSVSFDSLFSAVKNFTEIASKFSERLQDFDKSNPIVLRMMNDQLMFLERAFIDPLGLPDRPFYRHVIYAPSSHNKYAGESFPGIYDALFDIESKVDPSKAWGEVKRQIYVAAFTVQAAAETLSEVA
T2 sequence (P02768 25-609): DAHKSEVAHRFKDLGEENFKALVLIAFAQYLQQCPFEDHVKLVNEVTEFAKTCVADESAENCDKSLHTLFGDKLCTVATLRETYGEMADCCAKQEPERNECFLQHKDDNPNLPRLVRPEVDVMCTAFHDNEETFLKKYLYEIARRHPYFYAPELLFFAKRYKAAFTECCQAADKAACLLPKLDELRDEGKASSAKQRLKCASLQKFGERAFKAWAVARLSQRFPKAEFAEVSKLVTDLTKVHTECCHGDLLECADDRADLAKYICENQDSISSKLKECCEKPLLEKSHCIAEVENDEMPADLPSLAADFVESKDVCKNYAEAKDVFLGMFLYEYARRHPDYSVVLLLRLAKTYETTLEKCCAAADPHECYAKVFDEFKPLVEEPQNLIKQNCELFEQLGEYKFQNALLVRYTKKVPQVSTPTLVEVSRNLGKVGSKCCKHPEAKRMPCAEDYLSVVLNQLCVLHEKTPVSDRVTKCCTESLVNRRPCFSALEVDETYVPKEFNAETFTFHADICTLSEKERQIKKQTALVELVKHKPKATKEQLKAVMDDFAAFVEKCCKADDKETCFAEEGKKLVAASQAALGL

Compound | inverse IC50 (PSMA) | uptake in % iD/g adrenals [1] | uptake in % iD/g blood [1] | uptake in % iD/g bone [1] | uptake in % iD/g heart [1] | uptake in % iD/g intestine [1] | uptake in % iD/g kidney [1] | uptake in % iD/g liver [1] | uptake in % iD/g lung [1] | uptake in % iD/g muscle [1] | uptake in % iD/g pancreas [1] | uptake in % iD/g parotid gland [1] | uptake in % iD/g spleen [1] | uptake in % iD/g stomach [1] | uptake in % iD/g submandibular gland [1] | uptake in % iD/g tumor [1] | tumor-to-background ratio adrenals [1] | tumor-to-background ratio blood [1] | tumor-to-background ratio bone [1] | tumor-to-background ratio heart [1] | also measured
CC(C)(C)[Si](O)(c1ccc(C(=O)NC[C@@H](NC(=O)[C@@H](Cc2ccc(N)cc2)NC(=O)C(CNCCN)CNCCN)C(=O)N[C@H](CCCCNC(=O)CCC(=O)NCCC[C@@H](NC(=O)CC[C@H](NC(=O)N[C@@H](CCC(=O)O)C(=O)O)C(=O)O)C(=O)O)C(=O)O)cc1)C(C)(C)C.[O]=[99Tc+]=[O] [[^99mTc]Tc-N4-PSMA-21] | 11.1 ± 1.42 nM | 0.5759 % ID/g | 0.1074 % ID/g | 0.0828 % ID/g | 0.0568 % ID/g | 1.1034 % ID/g | 4.58 ± 1.44 % ID/g and 4.6 ± 1.4 % ID/g and 4.5811 % ID/g | 0.5752 % ID/g | 0.1250 % ID/g | 0.0153 % ID/g | 0.0335 % ID/g | 0.1105 % ID/g | 1.3064 % ID/g | 0.1458 % ID/g | 0.3009 % ID/g | 11.02 ± 2.22 % ID/g and 11.0155 % ID/g | 19.85 | 125.55 | 207.38 | 201.50 | tumor-to-background ratio intestine [1]: 52.29; tumor-to-background ratio kidney [1]: 2.57; tumor-to-background ratio liver [1]: 23.75; tumor-to-background ratio lung [1]: 99.35; tumor-to-background ratio muscle [1]: 736.44; tumor-to-background ratio pancreas [1]: 350.74; tumor-to-background ratio parotid gland [1]: 101.59; tumor-to-background ratio spleen [1]: 10.32; tumor-to-background ratio stomach [1]: 114.49; tumor-to-background ratio submandibular gland [1]: 50.80; Blood activity levels increased, as compared to [^99mTc]Tc-N4-PSMA-12 [1]: 5.4 fold; Kidney uptake of mouse #3 [1, 4]: 36.17 %ID/g; tumor uptake of mouse #3 [1, 4]: 21.92 %ID/g; logD7.4 [2]: -3.13 ± 0.05; internalization (% IBA-KuE) (LNCaP cells): 180 ± 4%; HSA-binding (HPAC) (%) [3]: 57.3%
CC(C)(C)[Si](O)(c1ccc(C(=O)NC[C@@H](NC(=O)[C@@H](Cc2ccccc2)NC(=O)C(CNCCN)CNCCN)C(=O)N[C@H](CCCCNC(=O)CCC(=O)NCCC[C@@H](NC(=O)CC[C@H](NC(=O)N[C@@H](CCC(=O)O)C(=O)O)C(=O)O)C(=O)O)C(=O)O)cc1)C(C)(C)C.[O]=[99Tc+]=[O] [[^99mTc]Tc-N4-PSMA-13] | 9.98 ± 0.99 nM | 0.5170 % ID/g | 0.0320 % ID/g | 0.0862 % ID/g | 0.0456 % ID/g | 0.2661 % ID/g | 6.6 ± 4.8 % ID/g and 6.5974 % ID/g | 0.2618 % ID/g | 0.1108 % ID/g | 0.0127 % ID/g | 0.0270 % ID/g | 0.1056 % ID/g | 0.6314 % ID/g | 0.1348 % ID/g | 0.3069 % ID/g | 12.5347 % ID/g | 24.50 | 409.29 | 142.94 | 276.38 | tumor-to-background ratio intestine [1]: 64.62; tumor-to-background ratio kidney [1]: 2.45; tumor-to-background ratio liver [1]: 50.17; tumor-to-background ratio lung [1]: 113.30; tumor-to-background ratio muscle [1]: 1013.12; tumor-to-background ratio pancreas [1]: 496.73; tumor-to-background ratio parotid gland [1]: 119.35; tumor-to-background ratio spleen [1]: 20.57; tumor-to-background ratio stomach [1]: 101.82; tumor-to-background ratio submandibular gland [1]: 41.60; Blood activity levels increased, as compared to [^99mTc]Tc-N4-PSMA-12 [1]: 1.6 fold; logD7.4 [2]: -2.78 ± 0.05; internalization (% IBA-KuE) (LNCaP cells): 164 ± 15%; HSA-binding (HPAC) (%) [3]: 89.9%
